Calls of active or inactive are those of the source. For most assays here, no stated cut-off is given here; in the data, actives have a measured EC50 and inactives only a lower limit.
Assays:
[1] = HEp-2 cell cytotoxicity, dose response, cytotoxicity control for RSV inhibitor project, HTS (AID 2410); type: functional; details: human respiratory syncytial virus
[2] = target: Heat shock protein HSP 90-alpha (Homo sapiens, UniProt P07900); type: functional, organism-based
[3] = inhibitors of intracellular T. cruzi replication, confirmation, NIH3T3 host cells, beta-gal luminescence (AID 2044); type: functional, cell-based;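 further: intracellular parasites grown in NIH/3T3 mouse fibroblasts as host cells; luminescent beta-galactosidase reporter signal from transgenic T. cruzi replicating inside host cells; inhibitors lower the luminescence signal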
[4] = microbe, parasite or virus in culture; type: functional; details: Mycobacterium tuberculosis
[5] = cytotoxicity toward NIH3T3 fibroblasts, dose response, counter-screen, cell-based, ATP luminescence, mouse fibroblasts (AID 2010); type: functional;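 further: cells exposed to compound for about 90 hours before reading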
[6] = target: T1, Heat shock factor protein 1 (Mus musculus, UniProt P38532); experiment: HSF1 potentiators in luciferase reporter cells, confirmation, cell-based, NIH3T3, luminescence, dose retest (AID 435004); type: functional;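 further: stress induced by proteasome inhibitor MG132 added 30 min after compound; luciferase reporter driven by HSF1 response element in NIH3T3 cells; actives raise luminescence as potentiators of the MG132 stress response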
T1 sequence (P38532 whole entry): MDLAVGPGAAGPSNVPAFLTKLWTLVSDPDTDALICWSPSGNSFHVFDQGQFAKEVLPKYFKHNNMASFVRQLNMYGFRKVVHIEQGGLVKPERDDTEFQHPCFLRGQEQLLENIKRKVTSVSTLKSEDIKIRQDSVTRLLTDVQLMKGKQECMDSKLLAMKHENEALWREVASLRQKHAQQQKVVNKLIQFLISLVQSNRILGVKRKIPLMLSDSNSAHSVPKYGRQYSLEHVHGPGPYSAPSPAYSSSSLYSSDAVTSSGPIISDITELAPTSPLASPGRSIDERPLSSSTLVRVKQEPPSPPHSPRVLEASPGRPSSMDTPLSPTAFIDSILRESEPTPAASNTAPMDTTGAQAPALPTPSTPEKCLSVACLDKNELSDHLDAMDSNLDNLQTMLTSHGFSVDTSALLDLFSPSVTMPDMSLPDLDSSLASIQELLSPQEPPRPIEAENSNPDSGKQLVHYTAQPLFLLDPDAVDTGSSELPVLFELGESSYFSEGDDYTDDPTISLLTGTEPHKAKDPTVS

[7] = target: T2, Calpain-2 catalytic subunit (Sus scrofa, UniProt P43367); experiment: pig calpain II inhibitor potency, dose response, biochemical, fluorogenic peptide substrate (AID 1420); type: functional
T2 sequence (P43367 whole entry): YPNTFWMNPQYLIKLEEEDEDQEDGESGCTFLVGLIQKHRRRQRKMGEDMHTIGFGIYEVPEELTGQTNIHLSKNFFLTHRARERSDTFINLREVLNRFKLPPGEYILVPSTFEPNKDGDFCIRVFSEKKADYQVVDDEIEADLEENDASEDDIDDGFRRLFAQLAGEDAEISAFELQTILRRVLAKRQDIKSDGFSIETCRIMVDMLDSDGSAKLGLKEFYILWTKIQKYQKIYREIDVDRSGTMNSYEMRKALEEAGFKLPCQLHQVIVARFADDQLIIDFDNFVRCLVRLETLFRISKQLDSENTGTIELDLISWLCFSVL

[8] = target: Luciferin 4-monooxygenase (Photinus pyralis, UniProt P08659); experiment: firefly luciferase enzyme inhibitors, dose response, biochemical, luminescence (AID 1891)
Luciferin 4-monooxygenase, sequence (P08659 whole entry): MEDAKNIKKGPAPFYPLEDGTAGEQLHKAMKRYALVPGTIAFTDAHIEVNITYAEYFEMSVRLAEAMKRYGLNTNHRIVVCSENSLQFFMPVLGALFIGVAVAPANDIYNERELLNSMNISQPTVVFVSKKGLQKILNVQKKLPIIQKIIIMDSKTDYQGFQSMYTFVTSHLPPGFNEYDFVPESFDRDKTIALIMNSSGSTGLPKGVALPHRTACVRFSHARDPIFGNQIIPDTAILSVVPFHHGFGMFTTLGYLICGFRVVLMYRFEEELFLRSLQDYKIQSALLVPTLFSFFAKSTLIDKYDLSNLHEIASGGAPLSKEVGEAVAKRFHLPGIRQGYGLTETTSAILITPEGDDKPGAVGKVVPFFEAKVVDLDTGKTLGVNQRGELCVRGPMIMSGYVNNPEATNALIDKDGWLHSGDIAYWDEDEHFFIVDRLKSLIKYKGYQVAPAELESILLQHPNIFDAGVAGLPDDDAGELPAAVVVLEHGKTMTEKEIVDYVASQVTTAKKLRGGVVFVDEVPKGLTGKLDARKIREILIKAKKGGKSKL

[9] = Luminescence Cell-Based Dose Confirmation HTS to Identify Inhibitors of Platelet Dense Granule Release. [Related pubchem assays: 1663 (Primary HTS), 1678 (Summary of Project)]; type: functional
[10] = control 3'UTR Renilla luciferase suppression, dose response, counter-screen for Shn3 inhibitor project, cell-based, Clone20-Shn3RL, cherry-picked (AID 624133); type: functional
[11] = target: T1, Heat shock factor protein 1; experiment: inhibition of MG132-induced HSE-luciferase signal, confirmation, cell-based, NIH3T3, luminescence, dose retest (AID 2382); type: functional;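 further: NIH3T3 fibroblasts with HSF1-driven luciferase reporter stressed by proteasome inhibitor MG132; luminescence from HSF1-driven luciferase expression after 8 hours of MG132 stress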
[12] = target: T3, Corticotropin-releasing factor receptor 2/Corticotropin-releasing factor-binding protein (Homo sapiens, UniProt P24387+Q13324); experiment: Dose Response confirmation of uHTS hits for small molecule antagonists of the CRF-binding protein and CRF-R2 receptor complex.; type: functional; details: read-out: IC50_Mean
T3 sequence (Q13324 whole entry): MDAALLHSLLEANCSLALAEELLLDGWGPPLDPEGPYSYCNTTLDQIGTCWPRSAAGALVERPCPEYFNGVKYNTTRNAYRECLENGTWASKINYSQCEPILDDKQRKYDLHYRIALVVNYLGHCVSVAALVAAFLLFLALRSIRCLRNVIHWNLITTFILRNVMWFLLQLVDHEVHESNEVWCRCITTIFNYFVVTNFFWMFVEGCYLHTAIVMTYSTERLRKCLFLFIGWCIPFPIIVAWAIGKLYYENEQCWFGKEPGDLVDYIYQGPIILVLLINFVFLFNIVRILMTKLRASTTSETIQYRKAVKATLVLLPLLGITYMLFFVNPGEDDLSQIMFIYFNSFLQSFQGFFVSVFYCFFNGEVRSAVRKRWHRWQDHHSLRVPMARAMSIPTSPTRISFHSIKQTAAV
T3 sequence (P24387 whole entry): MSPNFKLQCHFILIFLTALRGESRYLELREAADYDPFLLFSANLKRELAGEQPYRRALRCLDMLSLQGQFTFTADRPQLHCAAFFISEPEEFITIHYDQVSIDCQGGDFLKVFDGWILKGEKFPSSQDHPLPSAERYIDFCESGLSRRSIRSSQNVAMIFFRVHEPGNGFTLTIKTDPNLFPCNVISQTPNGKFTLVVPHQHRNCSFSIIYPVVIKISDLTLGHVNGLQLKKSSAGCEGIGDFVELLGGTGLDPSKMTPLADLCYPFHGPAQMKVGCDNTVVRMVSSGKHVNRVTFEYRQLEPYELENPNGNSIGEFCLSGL

[13] = target: T3, Corticotropin-releasing factor receptor 2/Corticotropin-releasing factor-binding protein; experiment: activators of CRF receptor 2 with binding protein – uHTS hits, confirmation (AID 602473); type: functional; details: read-out: EC50_Mean

Cc1ccc(C2=NC(C)(C)N=C2SCC(=O)Nc2ccc(Cl)cc2)cc1
CC50 [1]: 30.5 µM (active)
AC50 [2]: 15.1 µM (active)

C=CCN(C(=O)CSc1nc2c(sc3ccccc32)c(=O)n1CCN(CC)CC)c1ccccc1
EC50 [3]: 0.606 µM (active)
CC50 [4]: 31.9 µM (active)
EC50 [5]: 11 µM (active)

COc1cccc(C2C([N+](=O)[O-])=C(N)Oc3c2c(=O)oc2ccccc32)c1 (configuration not stated)
EC50 [6]: > 260 µM (inactive)

O=S(=O)(NC1CCCCCC1)c1ccc(Br)s1
AC50 [2]: 17.2 µM (active)

O=C(Cn1cc(C(=O)c2ccco2)c2ccccc21)Nc1ccccc1
IC50 [7]: 3.26 µM (not active)

C(=N\c1nc2ccccc2[nH]1)/c1cccs1
EC50 [8]: 16.2 µM (active)
EC50 [9]: > 112 µM (not active)

Cc1c(NC(=O)c2c(N)n(-c3ccccc3)c3nc4ccccc4nc23)c(=O)n(-c2ccccc2)n1C
EC50 [8]: > 112 µM (not active)
EC50 [9]: > 112 µM (not active)

Cc1ccc(CNC(=O)CSc2ccsc2[N+](=O)[O-])cc1
EC50 [6]: 31.5 µM (active)

CN(CC(=O)NCc1ccc2c(c1)OCO2)S(=O)(=O)c1ccc(Br)s1
AC50 [10]: 28.2 µM (active)

CCN(CC)c1nc(NN)nc(Nc2ccc(C)c(Cl)c2)n1
CC50 [4]: 31.8 µM (active)

Cc1ccc(C(=O)NCCCNc2ccccc2[N+](=O)[O-])cc1
IC50 [7]: 25.2 µM (not active)

CSc1nc2sc(-c3ccccc3)cc2c(=O)n1N
EC50 [8]: 0.191 µM (active)
EC50 [9]: < 0.701 µM (active)

CCc1cc(C(=O)NNC(=O)CCl)sc1C
CC50 [4]: 23.8 µM (active)

COc1cc(OC)nc(Oc2ccccc2C(=O)Oc2ccc(Cl)cc2)n1
EC50 [11]: > 195 µM (not active)
CC50 [4]: > 40 µM (active)

NS(=O)(=O)c1ccc(NC(=O)COC(=O)C23CC4CC(CC(C4)C2)C3)cc1
IC50 [7]: 3.33 µM (not active)

CCOC(=O)N1CCN(C(=O)Cn2cnc3ccccc3c2=O)CC1
IC50 [12]: > 47.1 µM (inactive)
EC50 [13]: > 53 µM (inactive)

COc1ccc(CC(=O)Nc2cccc(-c3cn4ccccc4n3)c2)cc1
EC50 [8]: > 112 µM (not active)
EC50 [9]: > 112 µM (not active)

CCSc1nnc(NC(=O)Cc2cccc(OC)c2)s1
IC50 [7]: 2.28 µM (not active)

COc1ccc(C2=NN(C(=O)CSC3=NN4CCCC(=O)N=C4S3)C(c3cccc(OC)c3OC)C2)cc1 (configuration not stated)
EC50 [8]: > 112 µM (not active)
EC50 [9]: > 112 µM (not active)

NC(=S)N/N=C/c1coc2c(ccc3ccccc32)c1=O
IC50 [7]: 24.6 µM (not active)

CCOC(=O)c1c(COc2ccccc2)oc2ccc(O)cc12
EC50 [6]: > 260 µM (inactive)

C=CCn1c(COc2ccc(CC)cc2)nnc1SC/C(O)=C(\C#N)c1nc2ccccc2[nH]1
EC50 [6]: > 260 µM (inactive)

Source: ChEMBL document CHEMBL1201862, “PubChem BioAssay data set” (2004)
